Source: patent US8618082B2, “Lupeol anti-tumor agent and uses thereof” (Wisconsin Alumni Research Foundation, priority 2004, dated 2013)
Entries after “also recorded” stand apart in the source; their conditions may differ.

Legend:
[1] = test system: CD-1 mouse skin; assay: TPA-induced epidermal hyperplasia (hematoxylin and eosin histology); assay type: in vivo
Experimental: FIG. 2. Inhibitory effect of Lupeol on TPA-induced hyperplasia in CD-1 mice: 24 and 48 h after treatment, the animals were sacrificed; skin biopsies were processed for hematoxylin and eosin staining. Representative pictures are shown.
The effect of topical application of Lupeol on TPA-mediated induction of epidermal hyperplasia was then assessed.
The animals were shaved on the dorsal side of the skin, divided into four groups and treated topically on the shaved area with either 0.4 ml vehicle (acetone), or TPA (3.2 nmol/0.4 ml acetone/animal, v/v), or Lupeol (1 or 2 mg/0.2 ml acetone/animal, w/v) followed 30 min later with TPA (3.2 nmol/0.2 ml acetone/animal). Animals were sacrificed at different times point i.e. 6, 12, 24 and 48 h post TPA treatment. The epidermis was separated from the whole skin and homogenized in 0.1 M Tris-HCl buffer (pH 7.2) using a Polytron tissue homogenizer (Brinkmann Instruments, Westbury, N.Y., USA) at 100,000×g supernatant, and microsomal fractions were prepared as described earlier (Katiyar and Mukhtar, 1997). […]
To assess the inhibitory effect of pre-application of Lupeol on TPA-induced edema, 1 cm-diameter punches of skin from vehicle-, Lupeol-, TPA- or Lupeol- and TPA-treated mice were removed, made free of fat pads, and weighed immediately. After drying for 24 h at 50° C., the skin punches were reweighed, and the loss of water content was determined. […]

[2] = test system: epidermal iNOS protein; assay: TPA-induced epidermal iNOS protein expression (western blot); assay type: in vivo, mouse
Experimental: FIG. 4. Inhibitory effect of Lupeol on TPA-induced epidermal ODC, iNOS and COX-2 protein expression in CD-1 mice: At different times after treatment, the animals were sacrificed, epidermal protein lysate was prepared, and ODC and COX-2 protein expression were determined. Equal loading of protein was confirmed by stripping the immunoblot and reprobing it for β-actin. The immunoblots shown here are representative of three independent experiments with similar results. The values above each lane indicate relative density of the band normalized to β-actin.
The animals were shaved on the dorsal side of the skin, divided into four groups and treated topically on the shaved area with either 0.4 ml vehicle (acetone), or TPA (3.2 nmol/0.4 ml acetone/animal, v/v), or Lupeol (1 or 2 mg/0.2 ml acetone/animal, w/v) followed 30 min later with TPA (3.2 nmol/0.2 ml acetone/animal). Animals were sacrificed at different times point i.e. 6, 12, 24 and 48 h post TPA treatment. […]
Epidermis from the whole skin was separated as described earlier (Katiyar et al., 1999) and was homogenized in ice-cold lysis buffer [50 mM Tris-HCl, 150 mM NaCl, 1 mM EGTA, 1 mM EDTA, 20 mM NaF, 100 mM Na3VO4, 0.5% NP-40, 1% Triton X-100, 1 mM PMSF (pH 7.4)] with freshly added protease inhibitor cocktail, Protease Inhibitor Cocktail Set III (Calbiochem, La Jolla, Calif., USA). […] The protein content in the lysates was measured by DC BioRad assay (BioRad Laboratories, Hercules, Calif.) as per the manufacturer's protocol.
For western blot analysis, 40 μg of the protein was resolved over 8-12% polyacrylamide gels and transferred to a nitrocellulose membrane. […] This was followed by incubation with anti-mouse or anti-rabbit secondary antibody horse-radish peroxidase (Amersham Life Sciences, Inc., USA) for 1 h and then washed several times and detected by chemiluminescence ECL kit, (Amersham Life Sciences, Inc., USA) and autoradiography using XAR-5 film obtained from Eastman Kodak Co. (Rochester, N.Y., USA). […]

[3] = test system: LNCaP cells; assay: Apoptosis in LNCaP cells by flow cytometry; assay type: cell-based, human; settings: Lupeol 5-30 μM
Experimental: FIG. 11 depicts quantitative representation of Lupeol induced apoptosis in LNCaP cells as assessed by flow cytometry. Cells were treated with Lupeol (5-30 μM). Cells showing fluorescence above that of control population, as indicated by the line in each histogram, are considered as apoptotic cells. The images shown here are representative of independent experiments with similar results. The values shown inside each graph indicates percent apoptotic cells.

With `C=C(C)[C@@H]1CC[C@]2(C)CC[C@]3(C)[C@H](CC[C@@H]4[C@@]5(C)CC[C@H](O)C(C)(C)[C@@H]5CC[C@]43C)[C@@H]12` [Lupeol, Lup-20(29)-en-3β-ol] the “epidermal hyperplasia after Lupeol alone” value ([1]; Lupeol alone) was “did not induce any epidermal hyperplasia”, the “induction of epidermal hyperplasia by TPA” value ([1]; topical Lupeol prior to TPA, 24 and 48 h) was “resulted in inhibition in the induction of epidermal hyperplasia” and the “inhibition against TPA-induced epidermal iNOS protein expression (densitometry)” value ([2]; Lupeol 2 mg/animal) was 74%. For the same compound, the “epidermal iNOS protein expression after Lupeol alone” value ([2]; Lupeol alone 2 mg) was “did not produce any change” and the “induction of apoptosis in LNCaP cells” value [3] was “due to apoptosis; also recorded: inducing apoptosis”.
